Test results taken from patent US9113629B2, “4-amino-6-(4-substituted-phenyl)-picolinates and 6-amino-2-(4-substituted-phenyl)-pyrimidine-4-carboxylates and their use as herbicides” (DOW AGROSCIENCES LLC, priority 2013, dated 2015).

Assays:
[1] = test system: TRZSS: wheat, including spring and winter (Triticum aestivum); test: Post-emergent Test III, herbicidal activity in wheat and barley; assay type: in vivo; conditions: Table 9, 21 d; for GR20 TRZSS: dose for 20 percent growth reduction, probit analysis; for pest or weed control at 35 g/ha / pest or weed control at 70 g/ha / pest or weed control at 140 g/ha: Triticum aestivum, post-emergence, 504 h, post-emergent, read-out: Visual Growth Reduction (%) 21 Days After Application TRZSS; for pest or weed control at 35 g/ha: 35 g ai/ha; for pest or weed control at 70 g/ha: 70 g ai/ha; for pest or weed control at 140 g/ha: 140 g ai/ha
How it was run: (§1)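 Plants at the second to third true-leaf stage, grown in a greenhouse at about 18/17 °C with a 14 h photoperiod, were sprayed post-emergence at 187 L/ha with the high rate and ½× to 1/16× serial dilutions in an acetone/DMSO/crop-oil/surfactant carrier. Injury was rated visually at 21 d on a 0–100% scale, and GR20–GR90 were derived by probit analysis.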

[2] = as above; assay type: in vivo, Lolium multiflorum, Lolium rigidum; conditions: Lolium multiflorum, post-emergence, 504 h, Table 9, post-emergent, 21 d, read-out: Visual Growth Reduction (%) 21 Days After Application LOLSS; for pest or weed control at 35 g/ha: 35 g ai/ha; for pest or weed control at 70 g/ha: 70 g ai/ha; for pest or weed control at 140 g/ha: 140 g ai/ha
How it was run: as §1

[3] = test system: SETVI: green foxtail (Setaria viridis); test: as above; assay type: in vivo; conditions: Table 9, 21 d; for pest or weed control at 35 g/ha / pest or weed control at 70 g/ha / pest or weed control at 140 g/ha: Setaria viridis, post-emergence, 504 h, post-emergent, read-out: Visual Growth Reduction (%) 21 Days After Application SETVI; for pest or weed control at 35 g/ha: 35 g ai/ha; for pest or weed control at 70 g/ha: 70 g ai/ha; for pest or weed control at 140 g/ha: 140 g ai/ha; for GR50 SETVI: dose for 50 percent growth reduction; for GR50 SETVI / GR80 SETVI: probit analysis; for GR80 SETVI: dose for 80 percent growth reduction
How it was run: as §1

[4] = test system: HORSS: barley, including spring and winter (Hordeum vulgare); test: as above; assay type: in vivo; conditions: Table 9, 21 d; for pest or weed control at 35 g/ha / pest or weed control at 70 g/ha / pest or weed control at 140 g/ha: Hordeum vulgare, post-emergence, 504 h, post-emergent, read-out: Visual Growth Reduction (%) 21 Days After Application HORSS; for pest or weed control at 35 g/ha: 35 g ai/ha; for pest or weed control at 70 g/ha: 70 g ai/ha; for pest or weed control at 140 g/ha: 140 g ai/ha; for GR20 HORSS: dose for 20 percent growth reduction, probit analysis
How it was run: as §1

[5] = test system: KCHSC: kochia (Kochia scoparia); test: as above; assay type: in vivo; conditions: Table 9, 21 d; for pest or weed control at 35 g/ha / pest or weed control at 70 g/ha / pest or weed control at 140 g/ha: Bassia scoparia, post-emergence, 504 h, post-emergent, read-out: Visual Growth Reduction (%) 21 Days After Application KCHSC; for pest or weed control at 35 g/ha: 35 g ai/ha; for pest or weed control at 70 g/ha: 70 g ai/ha; for pest or weed control at 140 g/ha: 140 g ai/ha; for GR50 KCHSC: dose for 50 percent growth reduction; for GR50 KCHSC / GR80 KCHSC: probit analysis; for GR80 KCHSC: dose for 80 percent growth reduction
How it was run: as §1

[6] = test system: LOLSS: ryegrass including, Italian ryegrass (Lolium multiflorum), rigid ryegrass (Lolium rigidum), annual ryegrass (Lolium multiflorum subsp. Gaudini); test: as above; assay type: in vivo; conditions: Table 9, probit analysis, 21 d; for GR50 LOLSS: dose for 50 percent growth reduction; for GR80 LOLSS: dose for 80 percent growth reduction
How it was run: as §1

[7] = test system: APESV: bentgrass (Apera spica-venti); test: as above; assay type: in vivo; conditions: Table 9, 21 d; for pest or weed control at 35 g/ha / pest or weed control at 70 g/ha / pest or weed control at 140 g/ha: Apera spica-venti, post-emergence, 504 h, post-emergent, read-out: Visual Growth Reduction (%) 21 Days After Application APESV; for pest or weed control at 35 g/ha: 35 g ai/ha; for pest or weed control at 70 g/ha: 70 g ai/ha; for pest or weed control at 140 g/ha: 140 g ai/ha; for GR50 APESV: dose for 50 percent growth reduction; for GR50 APESV / GR80 APESV: probit analysis; for GR80 APESV: dose for 80 percent growth reduction
How it was run: as §1

Structure (SMILES)	GR20 TRZSS [1]	pest or weed control at 35 g/ha [1]	pest or weed control at 70 g/ha [1]	pest or weed control at 35 g/ha [2]	pest or weed control at 70 g/ha [2]	pest or weed control at 35 g/ha [3]	pest or weed control at 70 g/ha [3]	GR50 SETVI [3]	GR80 SETVI [3]	pest or weed control at 35 g/ha [4]	pest or weed control at 70 g/ha [4]	GR20 HORSS [4]	pest or weed control at 35 g/ha [5]	pest or weed control at 70 g/ha [5]	GR50 KCHSC [5]	GR80 KCHSC [5]	GR50 LOLSS [6]	GR80 LOLSS [6]	pest or weed control at 35 g/ha [7]	pest or weed control at 70 g/ha [7]	other results
Nc1c(F)c(-c2cc(F)c(Br)cc2F)nc(C(=O)O)c1Cl [Compound 42, 4-amino-6-(4-bromo-2,5-difluorophenyl)-3-chloro-5-fluoropicolinic acid]	1 g ai/ha	85 to 94%	85 to 94%	30 to 44%	45 to 59%	85 to 94%	85 to 94%	1 g ai/ha	19 g ai/ha	85 to 94%	85 to 94%	1 g ai/ha	85 to 94%	60 to 74%	1 g ai/ha	1 g ai/ha	76 g ai/ha	>140 g ai/ha	85 to 94%	85 to 94%	pest or weed control at 140 g/ha [1]: 95 to 100%; pest or weed control at 140 g/ha [2]: 75 to 84%; pest or weed control at 140 g/ha [3]: 95 to 100%; pest or weed control at 140 g/ha [4]: 95 to 100%; pest or weed control at 140 g/ha [5]: 95 to 100%; pest or weed control at 140 g/ha [7]: 95 to 100%; GR50 APESV [7]: 7 g ai/ha; GR80 APESV [7]: 22 g ai/ha
COC(=O)c1nc(-c2ccc(Br)cc2)c(Cl)c(N)c1Cl [Compound 47]	1 g ai/ha	85 to 94%	95 to 100%	0 to 29%	45 to 59%	0 to 29%	75 to 84%	51 g ai/ha	104 g ai/ha	95 to 100%	95 to 100%	1 g ai/ha	85 to 94%	75 to 84%	20 g ai/ha	45 g ai/ha	80 g ai/ha	>140 g ai/ha	95 to 100%	95 to 100%	pest or weed control at 140 g/ha [1]: 95 to 100%; pest or weed control at 140 g/ha [2]: 60 to 74%; pest or weed control at 140 g/ha [3]: 85 to 94%; pest or weed control at 140 g/ha [4]: 95 to 100%; pest or weed control at 140 g/ha [5]: 95 to 100%; pest or weed control at 140 g/ha [7]: 95 to 100%; GR50 APESV [7]: 10 g ai/ha; GR80 APESV [7]: 14 g ai/ha
C=Cc1c(C(=O)O)nc(-c2ccc(C#N)cc2)c(F)c1N [Compound 150]	1 g ai/ha	60 to 74%	60 to 74%	0 to 29%	0 to 29%	0 to 29%	30 to 44%	79 g ai/ha	>140 g ai/ha	30 to 44%	45 to 59%	8 g ai/ha	60 to 74%	60 to 74%	7 g ai/ha	>140 g ai/ha	>140 g ai/ha	>140 g ai/ha	0 to 29%	0 to 29%	GR50 APESV [7]: >140 g ai/ha; GR80 APESV [7]: >140 g ai/ha
COC(=O)c1nc(-c2cc(F)c(I)cc2F)c(F)c(N)c1Cl [Compound 55, methyl 4-amino-3-chloro-6-(2,5-difluoro-4-iodophenyl)-5-fluoropicolinate]	1 g ai/ha	85 to 94%	95 to 100%	60 to 74%	75 to 84%	75 to 84%	85 to 94%	29 g ai/ha	46 g ai/ha	85 to 94%	95 to 100%	1 g ai/ha	85 to 94%	85 to 94%	4 g ai/ha	21 g ai/ha	21 g ai/ha	50 g ai/ha	75 to 84%	95 to 100%	GR50 APESV [7]: 4 g ai/ha; GR80 APESV [7]: 18 g ai/ha
C=Cc1c(C(=O)O)nc(-c2ccc(Br)cc2)c(F)c1N [Compound 117]	32 g ai/ha	0 to 29%	30 to 44%	45 to 59%	60 to 74%	0 to 29%	60 to 74%	59 g ai/ha	99 g ai/ha	0 to 29%	0 to 29%	73 g ai/ha	60 to 74%	75 to 84%	20 g ai/ha	67 g ai/ha	41 g ai/ha	>140 g ai/ha	45 to 59%	60 to 74%	GR50 APESV [7]: 41 g ai/ha; GR80 APESV [7]: >140 g ai/ha
COC(=O)c1nc(-c2cc(F)c(Br)cc2F)c(F)c(N)c1Cl [Compound 51, methyl 4-amino-6-(4-bromo-2,5-difluorophenyl)-3-chloro-5-fluoropicolinate]	1 g ai/ha	85 to 94%	95 to 100%	75 to 84%	75 to 84%	75 to 84%	85 to 94%	24 g ai/ha	49 g ai/ha	85 to 94%	95 to 100%	1 g ai/ha	85 to 94%	95 to 100%	4 g ai/ha	14 g ai/ha	3 g ai/ha	61 g ai/ha	85 to 94%	95 to 100%	GR50 APESV [7]: 3 g ai/ha; GR80 APESV [7]: 11 g ai/ha
